Literature values as cited in patent US6673373B2, “Antifungal formulation and the methods for manufacturing and using the same” (Carlsbad Technology Inc., priority 2001, dated 2004).

Columns and labels:
[1] = not given; remark: listed apart in the source
[2] = not given; remark: listed apart in the source

Molecule: CCC(C)n1ncn(-c2ccc(N3CCN(c4ccc(OC[C@H]5CO[C@](Cn6cncn6)(c6ccc(Cl)cc6Cl)O5)cc4)CC3)cc2)c1=O (mixture of isomers) [itraconazole, (±)-cis-4-[4-[4-[4-[[2-(2,4-dichlorophenyl)-2-(1H-1,2,4-triazol-1-ylmethyl)-1,3-dioxolan-4-yl]methoxy]phenyl]-1-piperazinyl]phenyl]-2,4-dihydro-2-(1-methylpropyl)-3H-1,2,4-triazol-3-one]
- solubility in water: less than 1 μg/ml
- binding rate with plasma proteins (plasma proteins): 99.8%
- time to reach peak concentration in plasma ([1]; after taken by the patients): 3 to 4 h
- concentration in blood as % of that in plasma ([1]; in vivo): about 60%
- itraconazole in its original form excreted in feces ([1]; in vivo): 3-18%
- itraconazole in its original form secreted in urine ([1]; in vivo): ≤ 0.03%
- plasma half life ([1]; in vivo): 24 to 36 h
- itraconazole metabolites secreted in urine ([1]; within a week after the uptake of the drug): About 35%

Molecule: hydroxy-itraconazole
- antifungal activity in vitro [2]: demonstrated in vitro to have antifungal activity
